Article PMC6094398, “New tools for evaluating protein tyrosine sulfation: tyrosylprotein sulfotransferases (TPSTs) are novel targets for RAF protein kinase inhibitors” (Biochemical Journal, 2018)
Several values for one entry are separate records, joined by “and”; a condition that tells them apart may be missing. Identical values can stand only once. Like-named read-outs stand apart in the source and are kept apart here.

Experiments:
human TPST1 [1] = target: T1, human TPST1 (Homo sapiens, UniProt O60507); experiment: EZ Reader II microfluidic mobility-shift CC4-tide sulfation assay, TPST1; format: biochemical; conditions: for IC50 / TPST1 inhibition at 400 μM: 10 µM PAPS; for TPST1 inhibition at 400 μM: Fig 8A, inhibitor 400 µM; for Sensitivity of TPST1 inhibition to the concentration of PAPS: increasing PAPS, fixed 20 µM PAP or 100 µM ATP, CoA, dephospho-CoA; for inhibition at 20 µM: read-out: TPST1 enzyme inhibition, PKIS screen
T1 construct: human TPST1 (residues Lys43–Leu360) and TPST2 (residues Gly43–Leu359) enzymes lacking the transmembrane domains; made in house; host or cells: E. coli BL21 (DE3) pLysS
T1 sequence (O60507 43-360): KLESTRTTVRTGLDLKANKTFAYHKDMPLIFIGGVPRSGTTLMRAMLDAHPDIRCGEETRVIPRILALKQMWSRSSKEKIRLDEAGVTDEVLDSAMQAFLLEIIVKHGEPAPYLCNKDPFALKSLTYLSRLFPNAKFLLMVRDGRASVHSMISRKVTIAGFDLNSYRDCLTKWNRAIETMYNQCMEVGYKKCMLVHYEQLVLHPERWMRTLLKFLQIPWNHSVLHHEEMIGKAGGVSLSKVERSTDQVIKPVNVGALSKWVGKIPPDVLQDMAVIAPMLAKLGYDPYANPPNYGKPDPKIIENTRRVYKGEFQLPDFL

human TPST1 [2] = target: T1, human TPST1; experiment: Differential scanning fluorimetry (thermal shift) assay with TPST1; format: binding; conditions: TPST1 5 µM; for Thermal shift of TPST1 (in words) / Thermal shift of TPST1 in the presence of Mg2+ ions (in words) / ΔTm TPST1: DSF; for Thermal shift of TPST1 (in words) / ΔTm TPST1: 0.5 mM nucleotide; for Thermal shift of TPST1 (in words): panel of nucleotide-based cofactors; for Thermal shift of TPST1 in the presence of Mg2+ ions (in words): 0.5 mM nucleotide + 10 mM MgCl2; for ΔTm TPST1: relative to buffer control
human TPST2 = target: T2, human TPST2 (Homo sapiens, UniProt O60704); experiment: Differential scanning fluorimetry (thermal shift) assay with TPST2; format: binding; conditions: DSF, TPST2 5 µM; for Thermal shift of TPST2 (in words): 0.5 mM nucleotide, panel of nucleotide-based cofactors; for Thermal shift of TPST2 in the presence of Mg2+ ions (in words): 0.5 mM nucleotide + 10 mM MgCl2
T2 construct: TPST2 (residues Gly43–Leu359) enzymes lacking the transmembrane domains; made in house; host or cells: E. coli BL21 (DE3) pLysS
T2 sequence (O60704 43-359): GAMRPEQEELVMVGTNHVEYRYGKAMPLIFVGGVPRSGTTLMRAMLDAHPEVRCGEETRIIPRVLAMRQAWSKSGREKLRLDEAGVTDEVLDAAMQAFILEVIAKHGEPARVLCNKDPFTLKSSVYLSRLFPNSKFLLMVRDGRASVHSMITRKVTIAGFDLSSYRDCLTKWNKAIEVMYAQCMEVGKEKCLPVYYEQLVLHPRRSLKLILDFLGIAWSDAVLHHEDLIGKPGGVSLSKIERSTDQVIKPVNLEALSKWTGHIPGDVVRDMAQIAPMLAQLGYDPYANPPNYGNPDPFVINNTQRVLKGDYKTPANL

[3] = test system: heparin sulfate 2-O sulfotransferase HS2ST; parameters: method as in PMID 29934491; conditions: cited from earlier work
human TPST1 [4] = target: T1, human TPST1; experiment: GST-CC4-tide tyrosine sulfation by TPST1, immunoblotting with monoclonal sulfotyrosine antibody; format: biochemical; conditions: for Inhibition of GST-CC4-tide tyrosine sulfation by TPST1 (immunoblot, in words): GST-CC4-tide 1 µg, 10 µM PAPS, increasing concentrations of inhibitor
Protocol: After the assay, proteins were denatured in Laemmli sample buffer, heated at 95°C for 5 min and then analysed by SDS–PAGE with 10% (v/v) polyacrylamide gels. Gels were stained and destained using a standard Coomassie Brilliant Blue protocol. To evaluate protein sulfation and phosphorylation by immunoblotting, standard western blotting procedures were followed using monoclonal anti-sulfotyrosine antibody clone Sulfo-1C-A2 (Millipore) generated using a phage display procedure and sulfotyrosine selection peptide antigens in the presence of appropriate positive and negative controls, and modifications visualised using the ECL reagent.

[5] = substrate: Nc1ncnc2c1ncn2C1OC(COP(=O)(O)OS(=O)(=O)O)C(OP(=O)(O)O)C1O; experiment: EZ Reader II microfluidic mobility-shift CC4-tide sulfation assay, TPST1; format: biochemical, human; conditions: other: CC4-tide 2 µM, TPST1 0.1 µM, four independent experiments; pH 7.4
[6] = Fig 7C, TPST1 0.1 µM, CC4-tide, 30 min at 37°C, duplicate, read-out: TPST1 estimated IC50, PKIS inhibitors
[7] = Fig 8B, TPST1 0.1 µM pre-incubated with compound, read-out: TPST1 estimated IC50, RAF kinase inhibitors
[8] = Fig 5A, CC4-tide, 0.1 µM TPST1, absence of MgCl2, read-out: IC50 TPST1, panel of nucleotides

O=C1Nc2ccc(-c3cccnc3)cc2C1=Cc1cc(Br)c(O)c(Br)c1 [GW429374A]
IC50 (human TPST1 [1]; [6]): 9.8 µM

CC(C)(C)c1nc(-c2cccc(NS(=O)(=O)c3c(F)cccc3F)c2F)c(-c2ccnc(N)n2)s1 [Dabrafenib, dabrafenib]
TPST1 inhibition at 400 μM (human TPST1 [1]; TPST1 0.1 µM, duplicate): essentially complete TPST1 inhibition
IC50 (human TPST1 [1]; [7]): 269 µM

Nc1ncnc2c1ncn2[C@@H]1O[C@H](COP(=O)(O)O)[C@@H](O)[C@H]1O [AMP, adenosine 5′-monophosphate]
Thermal shift of TPST1 (in words) (human TPST1 [2]): lack of significant thermal shift
Thermal shift of TPST2 (in words) (human TPST2): lack of significant thermal shift

CCCS(=O)(=O)Nc1ccc(F)c(C(=O)c2c[nH]c3ncc(Cl)cc23)c1F [PLX-4720]
IC50 (human TPST1 [1]; [7]): > 400 µM

Nc1nc2c(ncn2[C@@H]2O[C@H](COP(=O)(O)OP(=O)(O)OP(=O)(O)O)[C@@H](O)[C@H]2O)c(=O)[nH]1 [GTP, guanosine 5′-triphosphate]
Thermal shift of TPST1 in the presence of Mg2+ ions (in words) (human TPST1 [2]): abolished
Thermal shift of TPST1 (in words) (human TPST1 [2]): marked stabilisation
Thermal shift of TPST2 in the presence of Mg2+ ions (in words) (human TPST2): abolished
Thermal shift of TPST2 (in words) (human TPST2): marked stabilisation

Nc1nc(-c2ccc3c(c2)C(=Cc2cc(Br)c(O)c(Br)c2)C(=O)N3)cs1 [GW407323A]
IC50 (human TPST1 [1]; [6]): 6 µM

Cc1ccc(C(=O)Nc2ccc(S(=O)(=O)O)c3cc(S(=O)(=O)O)cc(S(=O)(=O)O)c23)cc1NC(=O)c1cccc(NC(=O)Nc2cccc(C(=O)Nc3cc(C(=O)Nc4ccc(S(=O)(=O)O)c5cc(S(=O)(=O)O)cc(S(=O)(=O)O)c45)ccc3C)c2)c1 [Suramin, suramin]
HS2ST inhibition in vitro (in words) [3]: inhibitory activity

CNC(=O)c1cc(Oc2ccc(NC(=O)Nc3ccc(Cl)c(C(F)(F)F)c3)cc2)ccn1 [Sorafenib, sorafenib]
TPST1 inhibition at 400 μM (human TPST1 [1]; TPST1 0.1 µM, duplicate): essentially complete TPST1 inhibition
IC50 (human TPST1 [1]; [7]): 119 µM

Cn1c(Nc2ccc(C(F)(F)F)cc2)nc2cc(Oc3ccnc(-c4ncc(C(F)(F)F)[nH]4)c3)ccc21 [RAF265]
TPST1 inhibition at 400 μM (human TPST1 [1]; TPST1 0.1 µM, duplicate): essentially complete TPST1 inhibition
IC50 (human TPST1 [1]; [7]): 6.5 µM
Inhibition of GST-CC4-tide tyrosine sulfation by TPST1 (immunoblot, in words) (human TPST1 [4]): dose-dependent inhibition
Mode of TPST1 inhibition with respect to PAPS (immunoblot densitometry) (human TPST1 [4]; GST-CC4-tide, increasing PAPS concentration): partially competitive mode of inhibition with PAPS
HS2ST inhibition in vitro (in words) [3]: did not inhibit HS2ST at any concentration tested

CC(C)(COP(=O)(O)OP(=O)(O)OC[C@H]1O[C@@H](n2cnc3c(N)ncnc32)[C@H](O)[C@@H]1O)[C@@H](O)C(=O)NCCC(=O)NCCS [dephospho-CoA, 3′-dephosphoCoA]
Thermal shift of TPST1 (in words) (human TPST1 [2]): unable to induce thermal shifts
Thermal shift of TPST2 (in words) (human TPST2): unable to induce thermal shifts
Sensitivity of TPST1 inhibition to the concentration of PAPS (human TPST1 [1]; CC4-tide): largely insensitive
IC50 (human TPST1 [1]; [8]): 166 µM

Nc1ncnc2c1ncn2[C@@H]1O[C@H](COP(=O)(O)OP(=O)(O)O)[C@@H](O)[C@H]1O [ADP, adenosine 5′-diphosphate]
Thermal shift of TPST1 in the presence of Mg2+ ions (in words) (human TPST1 [2]): abolished
Thermal shift of TPST1 (in words) (human TPST1 [2]): marked stabilisation
Thermal shift of TPST2 in the presence of Mg2+ ions (in words) (human TPST2): abolished
Thermal shift of TPST2 (in words) (human TPST2): marked stabilisation

COC(=O)c1ccc2c(c1)C(=Cc1cc(Br)c(O)c(Br)c1)C(=O)N2 [GW405841X]
IC50 (human TPST1 [1]; [6]): > 40 µM

O=C(O)C1=CC(=C(c2ccc(O)c(C(=O)O)c2)c2ccc(O)c(C(=O)O)c2)C=CC1=O [Aurintricarboxylic acid, aurintricarboxylic acid]
HS2ST inhibition in vitro (in words) [3]: inhibitory activity

Nc1ncnc2c1ncn2C1OC(COP(=O)(O)O)C(OP(=O)(O)O)C1O (stereo not drawn) [PAP, adenosine 3′–5′-diphosphate]
Thermal shift of TPST1 (in words) (human TPST1 [2]): marked stabilisation
ΔTm TPST1 (human TPST1 [2]): ~10 °C
Thermal shift of TPST2 (in words) (human TPST2): marked stabilisation
Sensitivity of TPST1 inhibition to the concentration of PAPS (human TPST1 [1]; CC4-tide): highly sensitive
IC50 (human TPST1 [1]; [8]): 1.5 µM

Cc1ccc(NC(=O)c2cccc(N(C)C)c2)cc1NC(=O)c1ccc(O)cc1 [ZM336372]
TPST1 inhibition at 400 μM (human TPST1 [1]; TPST1 0.1 µM, duplicate): essentially complete TPST1 inhibition
IC50 (human TPST1 [1]; [7]): 253 µM

CNC(=O)c1cncc(/C=C/c2ccccc2Cl)c1 [GW445017X]
inhibition at 20 µM (human TPST1 [1]): > 40%

O=C1Nc2ccc(I)cc2C1=Cc1cc(Br)c(O)c(Br)c1 [GW305074X]
IC50 (human TPST1 [1]; [6]): ~5 µM
Inhibition of GST-CC4-tide tyrosine sulfation by TPST1 (immunoblot, in words) (human TPST1 [4]): low-micromolar inhibitor

CCCS(=O)(=O)Nc1ccc(F)c(C(=O)c2c[nH]c3ncc(-c4ccc(Cl)cc4)cc23)c1F [Vemurafenib, vemurafenib]
TPST1 inhibition at 400 μM (human TPST1 [1]; TPST1 0.1 µM, duplicate): essentially complete TPST1 inhibition
IC50 (human TPST1 [1]; [7]): 42.9 µM and ~40 µM

O=C1Nc2ccc(C(=O)c3ccco3)cc2C1=Cc1cc(Cl)c(O)c(Cl)c1 [GW406108X]
TPST1 DSF screen of PKIS, rank of hit (human TPST1 [2]; 20 µM compound, 4% DMSO, hit cut-off ΔTm ± 0.5°C): top compound
IC50 (human TPST1 [1]; [6]): 16 µM

CC(=O)SCCNC(=O)CCNC(=O)[C@H](O)C(C)(C)COP(=O)(O)OP(=O)(O)OC[C@H]1O[C@@H](n2cnc3c(N)ncnc32)[C@H](O)[C@@H]1OP(=O)(O)O [acetyl CoA]
Thermal shift of TPST1 (in words) (human TPST1 [2]): marked stabilisation
Thermal shift of TPST2 (in words) (human TPST2): marked stabilisation

CNC(=O)c1cncc(/C=C/c2ccccc2C)c1 [GW445015X]
inhibition at 20 µM (human TPST1 [1]): > 40%

Cc1cc(-c2ccco2)cc(C)c1/C=C/c1cncc(-c2nn[nH]n2)c1 [GW458344A]
inhibition at 20 µM (human TPST1 [1]): > 40%

CC(C)(COP(=O)(O)OP(=O)(O)OC[C@H]1O[C@@H](n2cnc3c(N)ncnc32)[C@H](O)[C@@H]1OP(=O)(O)O)[C@@H](O)C(=O)NCCC(=O)NCCS [CoA, coenzyme A]
Thermal shift of TPST1 (in words) (human TPST1 [2]): marked stabilisation
ΔTm TPST1 (human TPST1 [2]): ~11 °C
Thermal shift of TPST2 (in words) (human TPST2): marked stabilisation
Sensitivity of TPST1 inhibition to the concentration of PAPS (human TPST1 [1]; CC4-tide): highly sensitive
IC50 (human TPST1 [1]; [8]): 87 µM and 87.3 µM

Nc1ncnc2c1ncn2[C@@H]1O[C@H](COP(=O)(O)OP(=O)(O)OP(=O)(O)O)[C@@H](O)[C@H]1O [ATP, adenosine 5′-triphosphate]
IC50 (human TPST1 [1]; [8]): 379 µM

B1: human TPST1 (Homo sapiens) (protein)
chain: KLESTRTTVRTGLDLKANKTFAYHKDMPLIFIGGVPRSGTTLMRAMLDAHPDIRCGEETRVIPRILALKQMWSRSSKEKIRLDEAGVTDEVLDSAMQAFLLEIIVKHGEPAPYLCNKDPFALKSLTYLSRLFPNAKFLLMVRDGRASVHSMISRKVTIAGFDLNSYRDCLTKWNRAIETMYNQCMEVGYKKCMLVHYEQLVLHPERWMRTLLKFLQIPWNHSVLHHEEMIGKAGGVSLSKVERSTDQVIKPVNVGALSKWVGKIPPDVLQDMAVIAPMLAKLGYDPYANPPNYGKPDPKIIENTRRVYKGEFQLPDFL
notes: human TPST1 (residues Lys43–Leu360) and TPST2 (residues Gly43–Leu359) enzymes lacking the transmembrane domains; made in house; host or cells: E. coli BL21 (DE3) pLysS
Km [5]: 6.6 ± 1.9 µM
